# Measurements: patent publication US20200038513A1, “MODULATORS OF FAK PROTEOLYSIS AND ASSOCIATED METHODS OF USE” (ARVINAS OPERATIONS, INC., priority 2018, published 2020)
# Test system: MDA-MB-231 cells
# Test: RPPA (reverse phase protein array)
# Type: cell-based, human
# Details: 500nM
# Protocol: RPPA analysis was performed by MD Anderson Cancer Center RPPA core facility.
# Examination of the Molecular Signaling Events) and/or Downstream Pathways Responsible for the Migration and Invasion Effects Observed by Exemplary Compound Treatment. To pinpoint these observations to a molecular signaling event or specific downstream pathway, reverse phase protein array (RPPA) analysis was performed (Table 4).
smiles,measurement,value
"Cc1ncsc1-c1ccc(CNC(=O)[C@@H]2C[C@@H](O)CN2C(=O)[C@@H](NC(=O)CCOCCOc2ccc(Nc3ncc(C(F)(F)F)c(NCc4cccc(N(C)S(C)(=O)=O)c4)n3)cc2)C(C)(C)C)cc1 [Compound 102, (2S,4R)-1-((S)-3,3-dimethyl-2-(3-(2-(4-((4-((3-(N-methylmethylsulfonamido)benzyl)amino)-5-(trifluoromethyl)pyrimidin-2-yl)amino)phenoxy)ethoxy)propanamido)butanoyl)-4-hydroxy-N-(4-(4-methylthiazol-5-yl)benzyl)pyrrolidine-2-carboxamide]","rel. Protein level, 4E-BP1",110.6%
same,"rel. Protein level, 4E-BP1_pS65",92.3%
same,"rel. Protein level, 14-3-3-beta",100.5%
same,"rel. Protein level, 14-3-3-zeta",105.4%
same,"rel. Protein level, 53BP1",111.3%
same,"rel. Protein level, A-Raf",106.5%
same,"rel. Protein level, ACC1",103.3%
same,"rel. Protein level, ACC_pS79",95.4%
same,"rel. Protein level, ADAR1",121.2%
same,"rel. Protein level, AMPK-a2_pS345",97.2%
same,"rel. Protein level, AMPKa",105.1%
same,"rel. Protein level, AMPKa_pT172",92.7%
same,"rel. Protein level, AR",85.0%
same,"rel. Protein level, ARID1A",121.1%
same,"rel. Protein level, ATM",106.8%
same,"rel. Protein level, ATM_pS1981",99.7%
same,"rel. Protein level, ATR_pS428",99.2%
same,"rel. Protein level, Akt",101.7%
same,"rel. Protein level, Akt_pS473",74.2%
same,"rel. Protein level, Akt_pT308",94.2%
same,"rel. Protein level, Annexin-I",117.8%
same,"rel. Protein level, Annexin-VII",110.0%
same,"rel. Protein level, Atg3",98.3%
same,"rel. Protein level, Atg7",100.8%
same,"rel. Protein level, Aurora-B",92.3%
same,"rel. Protein level, Axl",94.7%
same,"rel. Protein level, B7-H4",97.5%
same,"rel. Protein level, B-Raf",110.9%
same,"rel. Protein level, B-Raf_pS445",108.0%
same,"rel. Protein level, BAP1",96.8%
same,"rel. Protein level, BRD4",118.7%
same,"rel. Protein level, Bad_pS112",102.3%
same,"rel. Protein level, Bak",100.7%
same,"rel. Protein level, Bax",110.5%
same,"rel. Protein level, Bc1-xL",97.6%
same,"rel. Protein level, Bc12",92.8%
same,"rel. Protein level, Beclin_l",100.0%
same,"rel. Protein level, BiP-GRP78",103.0%
same,"rel. Protein level, Bid",102.8%
same,"rel. Protein level, Bim",102.9%
same,"rel. Protein level, C-Raf",100.8%
same,"rel. Protein level, C-Raf_pS338",90.7%
same,"rel. Protein level, CD4",101.8%
same,"rel. Protein level, CD20",92.3%
same,"rel. Protein level, CD29",104.7%
same,"rel. Protein level, CD31",98.2%
same,"rel. Protein level, CD44",106.6%
same,"rel. Protein level, CD45",97.9%
same,"rel. Protein level, CD49b",116.5%
same,"rel. Protein level, CD134",99.0%
same,"rel. Protein level, CDK1_pT14",94.6%
same,"rel. Protein level, COG3",107.9%
same,"rel. Protein level, Caspase-3",106.7%
same,"rel. Protein level, Caspase-7-cleaved-",113.1%
same,"rel. Protein level, Caspase-8",102.4%
same,"rel. Protein level, Caveolin-1",141.0%
same,"rel. Protein level, Chk2",94.4%
same,"rel. Protein level, Chk2_pT68",103.4%
same,"rel. Protein level, Chkl",92.3%
same,"rel. Protein level, Chkl_pS296",96.6%
same,"rel. Protein level, Claudin-7",101.6%
same,"rel. Protein level, Collagen-VI",93.4%
same,"rel. Protein level, Connexin-43",92.3%
same,"rel. Protein level, Cox2",171.3%
same,"rel. Protein level, Cox-IV",104.5%
same,"rel. Protein level, Creb",103.4%
same,"rel. Protein level, Cyclin-B1",96.7%
same,"rel. Protein level, Cyclin-D1",105.2%
same,"rel. Protein level, Cyclin-D3",94.7%
same,"rel. Protein level, Cyclin-E1",110.5%
same,"rel. Protein level, Cyclophilin-F",97.6%
same,"rel. Protein level, D-a-Tubulin",95.2%
same,"rel. Protein level, DJ1",103.5%
same,"rel. Protein level, DM-Histone-H3",108.5%
same,"rel. Protein level, DM-K9-Histone-H3",111.9%
same,"rel. Protein level, DUSP4",142.6%
same,"rel. Protein level, E2F1",98.2%
same,"rel. Protein level, E-Cadherin",92.7%
same,"rel. Protein level, EGFR",98.2%
same,"rel. Protein level, EGFR_pY1173",101.5%
same,"rel. Protein level, EMA",109.4%
same,"rel. Protein level, ENY2",95.1%
same,"rel. Protein level, ER",98.1%
same,"rel. Protein level, ER-a_pS118",109.9%
same,"rel. Protein level, ERCC1",93.6%
same,"rel. Protein level, ERCC5",103.3%
same,"rel. Protein level, Elk1_pS383",97.5%
same,"rel. Protein level, Ets-1",97.7%
same,"rel. Protein level, FAK",55.4%
same,"rel. Protein level, FAK_pY397",86.4%
same,"rel. Protein level, FASN",92.6%
same,"rel. Protein level, FOXM1",92.4%
same,"rel. Protein level, Fibronectin",103.9%
same,"rel. Protein level, FoxO3a",100.5%
same,"rel. Protein level, FoxO3a_pS318_S321",96.0%
same,"rel. Protein level, G6PD",97.7%
same,"rel. Protein level, GAPDH",99.4%
same,"rel. Protein level, GATA3",97.2%
same,"rel. Protein level, GATA-6",99.4%
same,"rel. Protein level, GCLM",99.9%
same,"rel. Protein level, GCN5L2",99.4%
same,"rel. Protein level, GSK-3a-b",107.2%
same,"rel. Protein level, GSK-3a-b_pS21_S9",97.0%
same,"rel. Protein level, Gab2",100.5%
same,"rel. Protein level, Glutamate-D1-2",95.5%
same,"rel. Protein level, Glutaminase",111.5%
same,"rel. Protein level, Granzyme-B",101.4%
same,"rel. Protein level, Gys",111.6%
same,"rel. Protein level, Gys_pS641",105.2%
same,"rel. Protein level, H2AX_pS140",117.7%
same,"rel. Protein level, HER2",106.9%
same,"rel. Protein level, HER2_pY1248",97.5%
same,"rel. Protein level, HER3",102.8%
same,"rel. Protein level, HER3_pY1289",96.9%
same,"rel. Protein level, HES1",92.3%
same,"rel. Protein level, HLA-DR-DP-DQ-DX",101.7%
same,"rel. Protein level, HSP27",96.5%
same,"rel. Protein level, HSP27_pS82",95.4%
same,"rel. Protein level, HSP70",105.2%
same,"rel. Protein level, Heregulin",113.3%
same,"rel. Protein level, Hexokinase-II",99.4%
same,"rel. Protein level, Hif-l-alpha",130.8%
same,"rel. Protein level, Histone-H3",131.4%
same,"rel. Protein level, IGF1R_pY1135_Y1136",97.2%
same,"rel. Protein level, IGFBP2",89.0%
same,"rel. Protein level, IGFRb",98.5%
same,"rel. Protein level, INPP4b",98.0%
same,"rel. Protein level, IR-b",111.4%
same,"rel. Protein level, IRF-1",111.6%
same,"rel. Protein level, IRS1",101.4%
same,"rel. Protein level, JNK2",103.8%
same,"rel. Protein level, JNK_pT183_Y185",98.5%
same,"rel. Protein level, Jagged1",111.0%
same,"rel. Protein level, Jak2",107.2%
same,"rel. Protein level, LC3A-B",106.5%
same,"rel. Protein level, LDHA",123.8%
same,"rel. Protein level, LRP6_pS1490",128.4%
same,"rel. Protein level, Lck",96.8%
same,"rel. Protein level, MAPK_pT202-Y204",93.7%
same,"rel. Protein level, MCT4",126.7%
same,"rel. Protein level, MDM2_pS166",94.8%
same,"rel. Protein level, MEK1",106.4%
same,"rel. Protein level, MEK1_p_S217-S221",95.0%
same,"rel. Protein level, MERIT40_pS29",92.3%
same,"rel. Protein level, MIF",107.4%
same,"rel. Protein level, MIG6",106.7%
same,"rel. Protein level, MMP2",103.9%
same,"rel. Protein level, MMP14-[EP1264Y]",137.5%
same,"rel. Protein level, MMP-14",120.9%
same,"rel. Protein level, MSH6",97.8%
same,"rel. Protein level, MSI2",93.5%
same,"rel. Protein level, Mcl-1",89.4%
same,"rel. Protein level, Merlin",94.1%
